In patent publication US20240226041A1, “METHODS AND COMPOSITIONS FOR TREATMENT OF NEUROPATHIC PAIN USING STAT3 INHIBITORS” (priority 2021, published 2024):

How the values were obtained:
rats = details: rat, in vivo; cited from earlier work
mice = assay: Example 6: mouse chronic constriction injury (CCI) model; assay type: in vivo
Method: CCI surgery is carried out in mice. Analgesia is limited to perioperative administration of buprenorphine SR (0.05 mg/kg SQ). […] Animals then are examined for behavioral pain sensitivity. All experiments are performed by observers blinded to the drug formulation administered. This is done from baseline (8 weeks)—prior to nerve injury—then weekly thereafter until 16 weeks of age. […] Anticoagulated blood is used to measure levels of pro- and anti-inflammatory cytokines. One portion of each SN and DRG is snap-frozen and another portion placed in formalin, then paraffin imbedded (FFPE). Cryotome sections of the snap-frozen tissue are used to generate protein lysates for measurement of pY-STAT3, IL-1B, and IL-6 by Luminex, and RNA for RNA-seq analysis. […] Microtome sections of FFPE blocks are H&E stained and undergo immunohistochemistry staining and scoring for pY-STAT3, CD68 (macrophages), PGP9.5 (sensory nerves) and GAP43 (regenerating nerves). Detection of oxidative stress in sciatic nerve and DRG via IHC for nitrotyrosine or 4-hydroxynonenal adducts and MnSOD is carried out. In a subset of mice, characterization of SN and DRG macrophage phenotype is analyzed using flow cytometry with conjugated antibodies against CD86, F4/80, CD163 and CD206.

[1] = tested on: bone marrow-derived macrophages (BMDM); assay: Example 5: bone marrow-derived macrophage inflammation and ROS production after STAT3 activation; assay type: cell-based; details: pre-incubation 0, 1, 3, 10, and 30 μM for one hour before Ang II or cytokines
Method: STAT3 is activated within BMDM in vitro by addition of Ang II (0.1-1 μM for 24 h), or using a cocktail of inflammatory mediators. […] The % of F4/80+ macrophages containing elevated levels of the fluorescent ROS-sensitive dye DCFDA is analyzed. The levels of pY-STAT3 in BMDM are determined. The BMDM cytokine expression pattern at the end of the culture period is assessed by intracellular fluorescence for cytosolic IL-10, IL-4, TNF-a and IL-1b.

C57BL/6 mice = assay: Example 3: mouse SNI model, pain behavior, barrier function, leukocyte infiltration, inflammatory mediators; assay type: in vivo
Method: SNI surgery is carried out in C57BL/6 mice as previously described. Analgesia is limited to perioperative administration of buprenorphine SR (0.05 mg/kg SQ). […] Animals then are examined for behavioral pain sensitivity. Plantar mechanical sensitivity is assessed using hind paw stimulation with von Frey filaments. Frequency of hindlimb withdrawal in response to application of filaments of increasing force is used as a readout of mechanical sensitivity. Plantar cold sensitivity is tested using the plantar cold assay, in which hindpaw withdrawal in response to a cooling source is used as a readout of cold sensitivity. Testing is carried out after habituation at baseline (prior to surgery), then once weekly for 8 weeks following surgery. Daily testing of von Frey and cold sensitivity is carried out during the TTI-101 treatment window. Additional behavioral testing occurs weekly to more extensively validate analgesic efficacy and functional recovery. The mechanical conflict-avoidance (MCA) test uses a chamber of blunt probes to measure aversion to hindpaw mechanical stimuli and serves as an additional assessment of mechanical sensitivity. Plantar cold sensitivity is measured using the thermal gradient ring assay, which uses a temperature gradient to measure temperature preference/aversion. Finally, paw placement and other gait parameters are assessed using digital gait analysis (Catwalk XT) and a burrowing activity assay (spontaneous clearing of bedding material from a tube). […] All experiments are performed by observers blinded to the genotype and drug formulation administered. This additional behavioral testing is done from baseline (8 weeks)—prior to nerve injury—then weekly thereafter until 16 weeks of age. Mice are euthanized humanely by cardiac puncture and necropsy performed to remove the contralateral and ipsilateral sciatic nerves (SN) and dorsal root ganglia (DRG). […] Anticoagulated blood at both time points is used to measure levels of pro- and anti-inflammatory cytokines, including IL-4, IL-6, IL-10, IL-13, TGF-β and IFN-γ by Luminex. One portion of each SN and DRG is snap-frozen and another portion placed in formalin, then paraffin imbedded (FFPE). Cryotome sections of snap-frozen tissues are used to generate protein lysates for measurement of pY-STAT3, IL-1B and IL-6 by Luminex and Western blotting. […] Snap-frozen tissues are processed to isolate RNA for RNA sequencing (RNA-seq) analysis. Microtome sections of FFPE blocks are H&E stained and undergo immunohistochemistry staining and scoring for pY-STAT3, CD68 (macrophages), PGP9.5 (sensory nerves) and GAP43 (regenerating nerves). Detection of oxidative stress in sciatic nerve and DRG via IHC for nitrotyrosine, 4-hydroxynonenal and MnSOD is carried out. Vascular endothelium permeability in nerve is determined by quantifying the extravasation of the fluorescent dye sodium fluorescein. Cross-sections of the nerve are quantified using the EVOS fluorescence microscope, and mean fluorescence intensity and the percent area positive are determined using NIH ImageJ software. In a subset of mice, characterization of SN and DRG macrophage phenotype are analyzed using flow cytometry with conjugated antibodies against CD86, F4/80, CD163 and CD206.

[2] = Glutathione reaction study (UV-HPLC stability with GSH); assay type: physicochemical; details: 100 μM in 50 mM HEPES pH 7.5, 10 mM GSH, 50 minutes after exposure
Method: The AUC of each compound measured at the times indicated by UV-HPLC and expressed as percent of the starting AUC of the peaks. Data are representative of four independently performed experiments.
Each reaction mixture was sampled at time 0 and every 5 minutes for 50 minutes; all samples were analyzed by HPLC. The amount of unreacted inhibitor was determined by measuring the area under the curve (AUC) and plotting this value as a percentage of the starting AUC as a function of time (FIG. 3). […] In contrast, there was no loss of TTI-101 in the presence of GSH.
Glutathione reaction studies. STAT3 inhibitors (10 ul of 10 mM stock in DMSO) were spiked into reaction buffer [50 mM HEPES pH7.5 containing 10 mM reduced glutathione (GSH)] the samples were mixed thoroughly and placed in an autosampler set at 20° C. The reactions were monitored by high performance liquid chromatography (HPLC) using an Exion LC Sciex unit equipped with a UV detector. The stationary phase used was a C18 Synergi™ 4 μm Fusion-RP 80 Å LC column (50×2 mm); the mobile phase was water (A) and acetonitrile (B). The elution process consisted of an isocratic step with 20% mobile phase B, followed by 80% B, for 2 minutes. The flow rate was maintained at 0.5 mL/min during the run. Measurements were conducted at intervals of 5 minutes for a period of 55 minutes total. The presence of the STAT3 inhibitors were quantified by calculating the area under the curves (AUCs) of the compound peaks at 260-295 nm.

[3] = 100 mg/kg oral gavage daily for 5 days

SMILES: COc1ccc(S(=O)(=O)Nc2cc(-c3c(O)ccc4ccccc34)c(O)c3ccccc23)cc1 [TTI-101]
- serious toxicity including lactic acidosis (rats): did not demonstrate any serious toxicity including lactic acidosis
- antalgic gait patterns/burrowing aversion (mice; [3]): net reduction
- macrophage infiltration of the sciatic nerve (mice; [3]): net reduction
- mechanical and thermal hypersensitivity (mice; [3]): net reduction
- plasma and tissue levels / pY-STAT3 in macrophages in SN and DRG (mice; [3]): achieves levels in the plasma and tissue adequate to reduce levels of pY-STAT3
- pain hyper-sensitivity at 8 weeks post-CCI (mice; 8 weeks post-CCI): sustained reversal
- oxidative stress/pro-inflammatory phenotype of BMDM after STAT3 activation [1]: reverses this oxidative stress/pro-inflammatory phenotype
- antalgic gait patterns/burrowing aversion (C57BL/6 mice; [3]): net reduction
- macrophage infiltration of SN and DRG (C57BL/6 mice; [3]): net reduction
- mechanical and cold hypersensitivity (C57BL/6 mice; [3]): net reduction
- plasma and tissue levels / pY-STAT3 in macrophages in SN and DRG (C57BL/6 mice; [3]): achieves levels in the plasma and tissue adequate to reduce levels of pY-STAT3
- RNA-seq gene signatures (C57BL/6 mice; SN and DRG): shifts RNA-seq gene signatures toward a net promotion of M2-like macrophage polarization, improved tight junction/barrier formation, reduced ROS production, and circulating pro-inflammatory markers
- loss of inhibitor in the presence of GSH [2]: no loss
